The values that follow come from patent US20040214832A1, “Piperazine derivative renin inhibitors” (priority 2003, published 2004).

This test deals with T1, human renin (Homo sapiens, UniProt P00797).
T1 sequence (P00797 67-406): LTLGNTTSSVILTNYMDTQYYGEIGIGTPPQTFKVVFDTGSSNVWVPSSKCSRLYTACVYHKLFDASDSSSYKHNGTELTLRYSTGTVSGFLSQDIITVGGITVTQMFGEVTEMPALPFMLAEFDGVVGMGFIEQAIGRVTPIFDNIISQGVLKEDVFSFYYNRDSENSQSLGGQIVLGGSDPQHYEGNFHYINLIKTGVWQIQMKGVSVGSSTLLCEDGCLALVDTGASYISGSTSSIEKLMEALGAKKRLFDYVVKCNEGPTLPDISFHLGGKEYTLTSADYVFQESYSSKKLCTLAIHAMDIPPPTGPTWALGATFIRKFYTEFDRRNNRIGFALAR
Description: Determination of renin IC50 by tGFP FRET assay. Format: biochemical. The settings on record: Human recombinant renin, tandem GFP substrate 650 nM, 60 min incubation with compound, pH 7.4, 11-point curve. From the text:
Determination of Renin IC50 by tGFP FRET Assay
The tGFP FRET (fluorescence resonance energy transfer) assay utilizes a tandem GFP substrate (60 kDa, Discovery Technologies) containing nine amino acid recognition sequences for human renin flanked by two GFP proteins. The assay is used to determine the ability of a compound to act as an inhibitor of renin enzymatic activity by determination of that concentration of test compound that inhibits by 50% (IC50) the ability of renin to cleave the tandem GFP substrate. The IC50 values are determined over an 11-point curve at concentrations of 100 μM to 1 pM. Each compound concentration used to construct the curve was dependent on renin inhibitor potency. For example, subnanomolar IC50 values were determined over an 11-point curve at concentrations of 10 μM to 1 pM. All other IC50 values were determined over an 11-point curve at concentrations of 100 μM to 0.0065 μM. The concentrations were achieved by diluting a 9.1 nM stock of Human recombinant renin in the appropriate amount of buffer containing 50 mM HEPES, 1 mM EDTA, 1% PEG (8000 MW), 1 mM DTT, 0.1% BSA, pH 7.4 to achieve the final concentration of 50.4 μIU. The tGFP substrate stock solution of 43 μM was diluted with the appropriate amount of the above buffer to obtain the final concentration of 650 nM. In addition, 1 μl of the compound is diluted in dimethylsulfoxide (DMSO) to represent an […] log scale (5% final). The SR renin and compound are added to a 384 capacity plate by an automated robot (BIOMEK). The plate is incubated for 60 minutes; upon completion the tGFP substrate is added.
The IC50 is determined by monitoring the increase in […] at 432/432 nm excitation, 530/475 nm emission with a cutoff at 515/455 nm, in a fluorometric plate reader.
Consider `COc1ccccc1COCCCOc1ccc(N2C(=O)CNC[C@@H]2COc2ccc3c(c2)N(CCO)CCC3)cc1` [Example 57, (6R)-6-[1-(2-hydroxyethyl)-1,2,3,4-tetrahydroquinolin-7-yloxymethyl]-1-{4-[3-(2-methoxybenzyloxy)-propoxy]-phenyl}-piperazin-2-one], for which the IC50 (as a rule, the point on the concentration scale where inhibition reaches its midpoint) worked out at 0.064 µM.

For the compound `COc1ccccc1COCCCOc1ccc(N2C(=O)CNC[C@@H]2COC(=O)c2ccc3ccccc3c2)cc1` [Example 58, naphthalene-2-carboxylic acid (2R)-1-{4-[3-(2-methoxybenzyloxy)-propoxy]-phenyl}-6-oxopiperazin-2-yl methyl ester], the IC50 was over 1 µM.

With `COc1ccccc1COCCCOc1ccc(N2C(=O)CNC[C@@H]2COC(=O)c2ccc(C)cc2)cc1` [Example 59, 4-methyl-benzoic acid (2R)-1-{4-[3-(2-methoxybenzyloxy)-propoxy]-phenyl}-6-oxopiperazin-2-yl methyl ester], the IC50 is over 1 µM.

For `COc1ccccc1COCCCOc1ccc(N2C(=O)CNC[C@@H]2COC(=O)c2ccc(Cl)cc2)cc1` [Example 60, 4-chloro-benzoic acid (2R)-1-{4-[3-(2-methoxybenzyloxy)-propoxy]-phenyl}-6-oxopiperazin-2-yl methyl ester], the IC50 is over 1 µM.

On to `COc1ccccc1COCCCOc1ccc(N2C(=O)CNC[C@@H]2COC(=O)c2ccccc2)cc1` [Example 61, benzoic acid (2R)-1-{4-[3-(2-methoxybenzyloxy)-propoxy]-phenyl}-6-oxopiperazin-2-yl methyl ester], for which the IC50 was over 1 µM.

On to `COc1ccc(COC[C@H]2CNCCN2c2ccc(OCCCOCc3ccc(Cl)cc3)cc2)cc1` [Example 62, (2R)-1-{4-[3-(4-chlorobenzyloxy)-propoxy]-phenyl}-2-(4-methoxybenzyloxymethyl)-piperazine], for which the IC50 was 43.7 µM.

As to `COc1ccc(COC[C@H]2CNCCN2c2ccc(OCCCOCc3ccc(Cl)c(Cl)c3)cc2)cc1` [Example 63, (2R)-1-{4-[3-(3,4-dichlorobenzyloxy)-propoxy]-phenyl}-2-(4-methoxybenzyloxymethyl)-piperazine], the IC50 stood at 11.5 µM.

`COc1ccc(COC[C@H]2CNCCN2c2ccc(OCCCOCc3cccc(Cl)c3)cc2)cc1` [Example 64, (2R)-1-{4-[3-(3-chlorobenzyloxy)-propoxy]-phenyl}-2-(4-methoxybenzyloxymethyl)-piperazine]: the IC50 is 5.04 µM.

Take `COc1ccc(COCCCOc2ccc(N3CCNC[C@@H]3COCc3ccc(OC)cc3)cc2)cc1` [Example 65, (2R)-2-(4-methoxybenzyloxymethyl)-1-{4-[3-(4-methoxybenzyloxy)-propoxy]-phenyl}-piperazine]: the IC50 is over 1 µM.

As for `COc1ccc(COC[C@H]2CNCCN2c2ccc(OCCCOCc3ccccc3Cl)cc2)cc1` [Example 66, (2R)-1-{4-[3-(2-chlorobenzyloxy)-propoxy]-phenyl}-2-(4-methoxybenzyloxymethyl)-piperazine], the IC50 worked out at 15.9 µM.

As to `COc1ccc(COC[C@H]2CNCCN2c2ccc(OCCCOCc3cc(F)cc(F)c3)cc2)cc1` [Example 67, (2R)-1-{4-[3-(3,5-difluorobenzyloxy)-propoxy]-phenyl}-2-(4-methoxybenzyloxymethyl)-piperazine], the half-inhibitory concentration (IC50) is 4.34 µM.

As to `COc1ccc(COC[C@H]2CNCCN2c2ccc(OCCCOCc3ccc(C)cc3)cc2)cc1` [Example 68, (2R)-2-(4-methoxybenzyloxymethyl)-1-{4-[3-(4-methylbenzyloxy)-propoxy]-phenyl}-piperazine], the IC50 was 60.2 µM.

`COc1ccc(COC[C@H]2CNCCN2c2ccc(OCCCOCc3cccc(OC)c3)cc2)cc1` [Example 69, (2R)-2-(4-methoxybenzyloxymethyl)-1-{4-[3-(3-methoxybenzyloxy)-propoxy]-phenyl}-piperazine]: the IC50 amounted to 15.6 µM.

Take `COc1ccc(COC[C@H]2CNCCN2c2ccc(COCCCOc3ccccc3OC)cc2)cc1` [Example 70, (2R)-2-(4-methoxybenzyloxymethyl)-1-{4-[3-(2-methoxyphenoxy)-propoxymethyl]-phenyl}-piperazine]: the IC50 is over 1 µM.

Consider `COc1ccccc1OCCCCOc1ccc(N2C(=O)CNC[C@@H]2COCc2ccc(F)cc2)cc1` [Example 71, (6R)-6-(4-fluorobenzyloxymethyl)-1-{4-[4-(2-methoxyphenoxy)-butoxy]-phenyl}-piperazin-2-one], for which the IC50 was 3.84 µM.

Turning to `COc1ccc(COC[C@H]2CNCCN2c2ccc(COCCOCc3ccccc3OC)cc2)cc1` [Example 72, (2R)-1-{4-[2-(2-methoxybenzyloxy)-ethoxymethyl]-phenyl}-2-(4-methoxybenzyloxymethyl)-piperazine], the IC50 turned out to be 30.5 µM.

As to `COc1ccccc1OCCCCOc1ccc(N2C(=O)CNC[C@@H]2COc2ccc3ccccc3c2)cc1` [Example 73, (6R)-1-{4-[4-(2-methoxyphenoxy)-butoxy]-phenyl}-6-(naphthalen-2-yloxymethyl)-piperazin-2-one], the IC50 came to 1.73 µM.

For the compound `COc1ccccc1COCCOCc1ccc(N2C(=O)CNC[C@@H]2COCc2ccc(F)cc2)cc1` [Example 74, (6R)-6-(4-fluorobenzyloxymethyl)-1-{4-[2-(2-methoxybenzyloxy)-ethoxymethyl]-phenyl}-piperazin-2-one], the IC50 was 4.09 µM.

Take `COc1ccc(COC[C@H]2CNCCN2c2ccc(OCCCCOc3ccccc3OC)cc2)cc1` [Example 75, (2R)-2-(4-methoxybenzyloxymethyl)-1-{4-[4-(2-methoxyphenoxy)-butoxy]-phenyl}-piperazine]: the IC50 turned out to be 42 µM.

With `COc1ccccc1OCCCOCc1ccc(N2C(=O)CNC[C@@H]2COCc2ccc(F)cc2)cc1` [Example 76, (6R)-6-(4-fluorobenzyloxymethyl)-1-{4-[3-(2-methoxyphenoxy)-propoxymethyl]-phenyl}-piperazin-2-one], the IC50 is over 1 µM.

In the case of `COc1ccccc1COCCCOc1ccc(N2C(=O)CNC[C@@H]2COc2ccc3ccccc3n2)cc1` [Example 77, (6R)-1-{4-[3-(2-methoxybenzyloxy)-propoxy]-phenyl}-6-(quinolin-2-yloxymethyl)-piperazin-2-one], the IC50 came out at 13.1 µM.

`COc1ccccc1COCCCOc1ccc(N2C(=O)CNC[C@@H]2COc2cnccn2)cc1` [Example 79, (6R)-1-{4-[3-(2-methoxybenzyloxy)-propoxy]-phenyl}-6-(pyrazin-2-yloxymethyl)-piperazin-2-one]: the IC50 was found to be 76.4 µM.

As for `COc1ccccc1COCCCOc1ccc(N2C(=O)CNC[C@@H]2COc2ccccn2)cc1` [Example 80, (6R)-1-{4-[3-(2-methoxybenzyloxy)-propoxy]-phenyl}-6-(pyridin-2-yloxymethyl)-piperazin-2-one], the IC50 was found to be 20.9 µM.

For `COc1ccccc1COCCCOc1ccc(N2C(=O)CNC[C@@H]2COc2ncccn2)cc1` [Example 81, (6R)-1-{4-[3-(2-methoxybenzyloxy)-propoxy]-phenyl}-6-(pyrimidin-2-yloxymethyl)-piperazin-2-one], the IC50 turned out to be 33.9 µM.

For `COc1ccccc1COCCCOc1ccc(N2C(=O)CNC[C@@H]2CNC(=O)c2ccccc2OC)cc1` [Example 82, 2-methoxy-N-([2R]-1-{4-[3-(2-methoxybenzyloxy)-propoxy]-phenyl}-6-oxopiperazin-2-ylmethyl)-benzamide], the IC50 is over 1 µM.

Consider `COc1ccccc1COCCCOc1ccc(N2C(=O)CNC[C@@H]2CNC(=O)c2ccc(Cl)cc2)cc1` [Example 83, 4-chloro-N-([2R]-1-{4-[3-(2-methoxybenzyloxy)-propoxy]-phenyl}-6-oxopiperazin-2-ylmethyl)-benzamide], for which the IC50 is over 1 µM.

Take `COc1ccccc1COCCCOc1ccc(N2C(=O)CNC[C@@H]2CNC(=O)c2ccccc2)cc1` [Example 84, N-([2R]-1-{4-[3-(2-methoxy-benzyloxy)-propoxy]-phenyl}-6-oxopiperazin-2-ylmethyl)-benzamide]: the IC50 is over 1 µM.

As for `COc1ccccc1COCCCOc1ccc(N2C(=O)CNC[C@@H]2CNC(=O)c2ccc3ccccc3c2)cc1` [Example 85, naphthalene-2-carboxylic acid ([2R]-1-{4-[3-(2-methoxybenzyloxy)-propoxy]-phenyl}-6-oxopiperazin-2-ylmethyl)-amide], the IC50 was over 1 µM.
